Reference: patent US20070059265A1, “Benzylidene-1,3-thiazolidine-2,4-dione compounds for stimulating or inducing the growth and/or for reducing the loss and/or for increasing the density of keratin fibers” (L'OREAL, priority 2005, published 2007)

Molecular target: T1, type-1 15-PGDH (Homo sapiens, UniProt P15428)
T1 construct: made in house
T1 sequence (P15428 1-266): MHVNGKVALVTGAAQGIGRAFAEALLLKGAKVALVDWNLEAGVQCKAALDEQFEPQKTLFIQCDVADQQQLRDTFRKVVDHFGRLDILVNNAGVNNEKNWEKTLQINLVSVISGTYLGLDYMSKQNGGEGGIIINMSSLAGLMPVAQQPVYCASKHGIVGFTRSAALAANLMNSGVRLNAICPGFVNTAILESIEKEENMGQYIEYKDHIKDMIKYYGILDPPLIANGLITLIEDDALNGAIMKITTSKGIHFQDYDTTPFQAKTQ
Assay: Test on type-1 15-PGDH (spectrophotometric, 340 nm, PGE2 and β-NAD as substrates)
Type: biochemical
Details: 37° C.; for IC50: pH 7.4 Tris buffer, 50 μM Prostaglandin E2, 1.5 mM β-NAD
Experimental: The enzyme 15-PGDH is obtained as described in patent application FR 02/05067 filed in the name of L'Oréal, as a suspension in a medium adjusted to a concentration of 0.3 mg/mL and then blocked at −80° C. For the purposes of the test, this suspension is thawed and stored in ice.
In parallel, a 100 mM, pH 7.4 Tris buffer containing 0.1 mM of dithiothreitol (D5545, Sigma-Aldrich, L'isle D'Abeau Chesne, BP 701, 38297, Saint Quentin Fallavier), 1.5 mM of β-NAD (N6522, Sigma-Aldrich, L'isle D'Abeau Chesne, BP 701, 38297, Saint Quentin Fallavier), and 50 μM of Prostaglandin E2 (P4172, Sigma-Aldrich, L'isle D'Abeau Chesne, BP 701, 38297, Saint Quentin Fallavier) is prepared.
0.965 ml of this buffer (brought to 37° C. beforehand) is introduced into the cuvette of a spectrophotometer (Perkin-Elmer, Lambda 2) thermostatically maintained at 37° C., the measuring wavelength of which is set at 340 nm. 0.035 mL of enzymatic suspension at 37° C. is introduced into the cuvette concomitantly with the recording (corresponding to an increase in the optical density at 340 nm). The maximum reaction rate is recorded.

Structure (SMILES)	inhibition at 100 µM (at 100 μM of compound, pH 7.4, read-out: % inhibition of the enzymatic activity of 15-PGDH) [%]	IC50 [nM]
O=C1NC(=O)/C(=C/c2ccccc2Oc2ccc(F)cc2)S1 [Compound 6]	48	
CC(C)(C)c1ccc(Oc2cccc(/C=C3\SC(=O)NC3=O)c2)cc1 [Compound 16]		200
O=C1NC(=O)/C(=C/c2ccccc2Oc2ccc(Br)cc2F)S1 [Compound 10]		1550
